Data from ChEMBL document CHEMBL1201862, “PubChem BioAssay data set” (2004).
The source made the active and inactive calls.

How the values were obtained:
[1] = molecular target: T1, Rac GTPase-activating protein 1 (Homo sapiens, UniProt Q9H0H5); test: MgcRacGAP GTPase-activating activity inhibitors, confirmation, biochemical, ADP Hunter fluorescence, primary and confirmatory (AID 624330); assay type: functional
T1 sequence (Q9H0H5 whole entry): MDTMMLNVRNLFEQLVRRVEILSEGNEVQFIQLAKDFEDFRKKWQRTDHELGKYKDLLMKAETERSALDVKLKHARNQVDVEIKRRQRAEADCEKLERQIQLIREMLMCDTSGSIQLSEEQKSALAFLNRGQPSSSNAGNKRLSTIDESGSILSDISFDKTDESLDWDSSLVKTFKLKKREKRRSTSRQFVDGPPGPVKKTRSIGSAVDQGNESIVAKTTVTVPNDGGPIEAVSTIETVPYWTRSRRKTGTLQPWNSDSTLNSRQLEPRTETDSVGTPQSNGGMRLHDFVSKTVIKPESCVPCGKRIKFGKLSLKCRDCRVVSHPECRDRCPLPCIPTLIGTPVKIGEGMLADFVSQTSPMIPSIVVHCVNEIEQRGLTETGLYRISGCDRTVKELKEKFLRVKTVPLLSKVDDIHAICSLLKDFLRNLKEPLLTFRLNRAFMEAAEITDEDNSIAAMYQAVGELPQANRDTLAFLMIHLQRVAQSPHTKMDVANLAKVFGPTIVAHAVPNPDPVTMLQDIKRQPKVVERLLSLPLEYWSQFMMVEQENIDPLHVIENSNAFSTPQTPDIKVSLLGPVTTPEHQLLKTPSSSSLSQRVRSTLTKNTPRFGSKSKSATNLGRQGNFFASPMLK

Cytochrome P450 2D6 = Cytochrome P450 2D6 (Homo sapiens, UniProt P10635);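 note: CYP2D6 member of a cytochrome P450 panel assay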
Cytochrome P450 2C19 = Cytochrome P450 2C19 (Homo sapiens, UniProt P33261); test: Cytochrome panel assay with activity outcomes. Panel member name: p450-cyp2c19 Compounds with AC50 equal or less than 10 uM are considered active; assay type: functional; conditions: read-out: AC50
[2] = molecular target: T2, Heat shock factor protein 1 (Mus musculus, UniProt P38532); test: inhibition of MG132-induced HSE-luciferase signal, confirmation, cell-based, NIH3T3, luminescence, dose retest (AID 2382); assay type: functional;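 note: NIH3T3 fibroblasts with HSF1-driven luciferase reporter stressed by proteasome inhibitor MG132; luminescence from HSF1-driven luciferase expression after 8 hours of MG132 stress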
T2 sequence (P38532 whole entry): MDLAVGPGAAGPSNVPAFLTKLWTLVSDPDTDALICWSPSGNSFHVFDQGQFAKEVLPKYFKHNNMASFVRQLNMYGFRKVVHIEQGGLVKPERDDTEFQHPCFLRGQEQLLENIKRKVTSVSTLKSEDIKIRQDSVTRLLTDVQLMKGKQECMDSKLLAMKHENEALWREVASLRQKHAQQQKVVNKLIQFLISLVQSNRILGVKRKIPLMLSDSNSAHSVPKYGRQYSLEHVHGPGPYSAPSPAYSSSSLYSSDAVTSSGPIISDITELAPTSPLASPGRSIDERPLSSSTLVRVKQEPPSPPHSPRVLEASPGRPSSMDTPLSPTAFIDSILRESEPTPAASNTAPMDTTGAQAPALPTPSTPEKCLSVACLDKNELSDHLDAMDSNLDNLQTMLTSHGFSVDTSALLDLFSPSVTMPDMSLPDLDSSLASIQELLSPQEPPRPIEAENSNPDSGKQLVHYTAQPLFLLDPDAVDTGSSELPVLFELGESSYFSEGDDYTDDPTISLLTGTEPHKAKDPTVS

Cytochrome P450 3A4 = Cytochrome P450 3A4 (Homo sapiens, UniProt P08684);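 note: CYP3A4 tested as one member of a cytochrome P450 panel screen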
Cytochrome P450 2C9 = Cytochrome P450 2C9 (Homo sapiens, UniProt P11712)
[3] = HEp-2 cell cytotoxicity, dose response, cytotoxicity control for RSV inhibitor project, HTS (AID 2410); assay type: functional; conditions: human respiratory syncytial virus
[4] = Luminescence Cell-Based Dose Retest to Confirm Inhibitors of Cancer Stem Cells. [Related pubchem assays (depositor defined):AID2717, AID2721]; assay type: functional; conditions: Homo sapiens
[5] = tested on: Streptococcus sp. 'group A'; test: growth inhibition of control SK(-) GAS strain, dose response, counter-screen for streptokinase expression inhibitor project, luminescence, kanamycin, BacTiterGlo, confirmation (AID 1900); assay type: functional, organism-based
Streptococcus = test: Group A Streptococcus viability loss, dose response, counter-screen for streptokinase expression inhibitor project, luminescence, BacTiterGlo (AID 1915); assay type: functional, organism-based;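 note: potency for reduction of bacterial viability or growth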
Paired box protein Pax-8 = Paired box protein Pax-8 (Homo sapiens, UniProt Q06710); test: inhibitors of PAX8-driven TPO luciferase reporter, dose response, RMG-I cells, cherry-pick (AID 687027); assay type: functional, cell-based;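 note: luciferase reporter driven by Pax8 target thyroperoxidase promoter measured by SteadyGlo luminescence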
Cytochrome P450 1A2 = molecular target: T3, Cytochrome P450 1A2 (Homo sapiens, UniProt P05177);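 note: PubChem cytochrome P450 panel assay, CYP1A2 panel member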
T3 sequence (P05177 whole entry): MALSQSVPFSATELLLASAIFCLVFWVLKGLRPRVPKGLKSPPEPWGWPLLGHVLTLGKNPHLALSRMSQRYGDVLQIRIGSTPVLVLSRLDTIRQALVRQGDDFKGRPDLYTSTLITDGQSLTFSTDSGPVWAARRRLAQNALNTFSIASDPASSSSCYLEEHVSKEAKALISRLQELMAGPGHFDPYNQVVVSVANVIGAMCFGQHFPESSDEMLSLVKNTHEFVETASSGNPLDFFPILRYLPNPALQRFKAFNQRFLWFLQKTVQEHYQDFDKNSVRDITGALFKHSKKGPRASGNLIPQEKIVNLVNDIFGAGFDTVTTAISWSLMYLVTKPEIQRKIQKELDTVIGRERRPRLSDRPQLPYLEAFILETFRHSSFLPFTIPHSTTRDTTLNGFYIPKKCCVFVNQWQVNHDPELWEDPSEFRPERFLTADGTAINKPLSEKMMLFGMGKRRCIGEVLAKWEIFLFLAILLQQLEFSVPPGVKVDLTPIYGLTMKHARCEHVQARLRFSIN

Chain of Cytochrome P450 2D6 (P10635 whole entry): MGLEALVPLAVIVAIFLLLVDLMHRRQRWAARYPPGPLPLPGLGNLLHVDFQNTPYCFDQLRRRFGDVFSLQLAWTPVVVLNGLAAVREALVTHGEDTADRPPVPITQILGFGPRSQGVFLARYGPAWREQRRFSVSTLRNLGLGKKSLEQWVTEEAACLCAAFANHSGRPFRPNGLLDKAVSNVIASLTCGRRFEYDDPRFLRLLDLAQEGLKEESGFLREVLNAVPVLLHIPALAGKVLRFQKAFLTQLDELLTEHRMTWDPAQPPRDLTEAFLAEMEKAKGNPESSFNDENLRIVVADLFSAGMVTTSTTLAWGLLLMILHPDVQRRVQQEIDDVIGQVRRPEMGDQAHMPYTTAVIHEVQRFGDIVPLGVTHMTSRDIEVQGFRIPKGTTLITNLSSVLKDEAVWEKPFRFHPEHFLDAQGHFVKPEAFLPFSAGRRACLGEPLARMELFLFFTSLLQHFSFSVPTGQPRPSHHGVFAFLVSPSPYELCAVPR
Chain of Cytochrome P450 2C9 (P11712 whole entry): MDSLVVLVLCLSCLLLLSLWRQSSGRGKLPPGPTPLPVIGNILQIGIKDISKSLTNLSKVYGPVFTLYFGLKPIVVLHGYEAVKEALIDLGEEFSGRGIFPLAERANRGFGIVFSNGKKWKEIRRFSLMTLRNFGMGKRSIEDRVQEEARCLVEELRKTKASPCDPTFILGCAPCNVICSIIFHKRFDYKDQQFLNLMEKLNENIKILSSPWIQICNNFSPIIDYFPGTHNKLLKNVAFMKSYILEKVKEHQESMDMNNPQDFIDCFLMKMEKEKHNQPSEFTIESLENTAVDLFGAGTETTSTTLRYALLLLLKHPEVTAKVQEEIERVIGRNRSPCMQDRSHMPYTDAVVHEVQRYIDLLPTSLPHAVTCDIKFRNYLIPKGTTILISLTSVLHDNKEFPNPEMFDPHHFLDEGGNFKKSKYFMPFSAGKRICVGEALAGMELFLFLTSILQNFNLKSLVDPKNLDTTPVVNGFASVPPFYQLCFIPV
Chain of Cytochrome P450 2C19 (P33261 whole entry): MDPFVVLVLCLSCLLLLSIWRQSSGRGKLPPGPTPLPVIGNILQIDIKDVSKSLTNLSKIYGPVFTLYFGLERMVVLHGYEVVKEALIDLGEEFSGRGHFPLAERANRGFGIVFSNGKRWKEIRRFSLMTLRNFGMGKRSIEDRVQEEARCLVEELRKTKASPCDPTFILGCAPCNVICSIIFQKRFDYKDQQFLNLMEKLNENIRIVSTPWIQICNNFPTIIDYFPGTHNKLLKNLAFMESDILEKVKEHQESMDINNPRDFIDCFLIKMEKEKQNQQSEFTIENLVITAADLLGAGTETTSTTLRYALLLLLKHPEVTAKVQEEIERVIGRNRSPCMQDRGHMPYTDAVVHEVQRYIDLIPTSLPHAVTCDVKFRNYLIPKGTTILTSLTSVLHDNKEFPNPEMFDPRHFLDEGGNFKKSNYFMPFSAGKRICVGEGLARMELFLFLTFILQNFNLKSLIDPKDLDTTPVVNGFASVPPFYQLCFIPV
Chain of Cytochrome P450 3A4 (P08684 whole entry): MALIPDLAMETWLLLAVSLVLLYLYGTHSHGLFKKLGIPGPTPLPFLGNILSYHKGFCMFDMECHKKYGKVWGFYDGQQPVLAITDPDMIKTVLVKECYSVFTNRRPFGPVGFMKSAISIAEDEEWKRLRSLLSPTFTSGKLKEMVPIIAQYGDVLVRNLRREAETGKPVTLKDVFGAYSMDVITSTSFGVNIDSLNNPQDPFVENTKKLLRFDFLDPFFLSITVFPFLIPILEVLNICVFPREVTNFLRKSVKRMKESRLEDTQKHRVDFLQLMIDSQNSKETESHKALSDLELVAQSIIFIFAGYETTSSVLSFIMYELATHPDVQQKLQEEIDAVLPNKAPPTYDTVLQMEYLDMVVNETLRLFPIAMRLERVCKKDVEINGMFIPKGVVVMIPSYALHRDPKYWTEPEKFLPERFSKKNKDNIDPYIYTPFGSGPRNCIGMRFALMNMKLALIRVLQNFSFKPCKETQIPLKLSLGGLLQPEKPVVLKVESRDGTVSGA
Chain of Paired box protein Pax-8 (Q06710 whole entry): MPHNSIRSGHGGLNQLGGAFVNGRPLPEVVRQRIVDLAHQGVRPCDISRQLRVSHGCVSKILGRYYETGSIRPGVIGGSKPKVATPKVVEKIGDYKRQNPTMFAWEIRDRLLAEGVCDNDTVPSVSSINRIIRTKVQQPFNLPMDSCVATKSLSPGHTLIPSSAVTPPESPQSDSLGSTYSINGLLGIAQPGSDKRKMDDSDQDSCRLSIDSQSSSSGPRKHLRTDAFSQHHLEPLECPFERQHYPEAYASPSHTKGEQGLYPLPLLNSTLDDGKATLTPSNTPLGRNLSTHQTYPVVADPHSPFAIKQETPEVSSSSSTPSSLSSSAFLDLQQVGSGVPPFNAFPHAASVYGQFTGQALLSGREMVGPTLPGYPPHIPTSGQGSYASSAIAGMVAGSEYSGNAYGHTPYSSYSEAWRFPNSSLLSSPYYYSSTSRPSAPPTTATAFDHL

O=C(CNC(=O)c1cccs1)N/N=C/c1ccc(O)cc1O
IC50 [1]: 63.7 µM (active)

CCc1ccc(NC(=S)N2CCN(c3cccc(C(F)(F)F)c3)CC2)cc1
AC50 (Cytochrome P450 2D6): 0.01 µM (inconclusive)
AC50 (Cytochrome P450 2C19): 4.47 µM (inconclusive)

COc1ccc(/C=C/C(=O)N2CCC(C(N)=O)CC2)cc1S(=O)(=O)N1CCOCC1
EC50 [2]: > 195 µM (not active)

NCC#Cc1ccccc1
AC50 (Cytochrome P450 3A4): 15.8 µM (inconclusive)

COc1ccccc1-c1cc(NCc2cnc(C)cn2)ncn1
AC50 (Cytochrome P450 2D6): 20 µM (inconclusive)

Cc1ccc(COn2c(-c3ccc(Cl)cc3)nc3ccc([N+](=O)[O-])cc32)cc1
AC50 (Cytochrome P450 3A4): 3.55 µM (inconclusive)
AC50 (Cytochrome P450 2C9): 8.91 µM (inconclusive)

C=CCNC(=O)c1c(O)c2cccc3c2n(c1=O)CCC3
CC50 [3]: > 50 µM (active)

C=CC(C)(C)c1[nH]c2ccccc2c1C1=C(O)C(O)=C(c2c[nH]c3c(CC=C(C)C)cccc23)C(=O)C1=O
AC50 (Cytochrome P450 3A4): 25.1 µM (inconclusive)

CCOCC(=O)Nc1ccc([N+](=O)[O-])cc1Cl
CC50 [3]: > 50 µM (active)

O=C(C[N+]12CN3CN(CN(C3)C1)C2)c1ccc(-c2ccccc2)cc1
AC50 (Cytochrome P450 3A4): 3.16 µM (inconclusive)
AC50 (Cytochrome P450 2C9): 3.16 µM (inconclusive)

COc1ccc(N/N=C(/C(C)=O)N2CCCc3ccccc32)cc1
AC50 [4]: 1.58 µM (active)

O=C(CSc1nc2ccccc2s1)N/N=C/c1ccccc1C(=O)O
EC50 [2]: 5.59 µM (active)

CCCOc1ccc(C2C(=O)N(C3CCCCC3)CC(=O)N2C2CC2)cc1OC (configuration not stated)
AC50 (Cytochrome P450 2C19): 39.8 µM (inconclusive)
AC50 (Cytochrome P450 3A4): 17.8 µM (inconclusive)

Cc1cc(OCC(=O)NCCO)cc(C)c1Cl
EC50 [2]: > 195 µM (not active)

Cc1ccc(N/N=C/c2cccnc2)cc1
AC50 [4]: 4.39 µM (active)

COc1cc(NS(=O)(=O)c2ccc(NC(=O)/C=C/C(=O)O)cc2)nc(OC)n1
EC50 [2]: > 195 µM (not active)

CCn1c2ccccc2c2cc(NC(=O)CNC)ccc21
IC50 [1]: 100 µM (active)

CCOC(=O)c1cccc(NC(=O)COc2ccc([N+](=O)[O-])cc2)c1
AC50 (Cytochrome P450 3A4): 15.8 µM (inconclusive)

CCn1c(=O)c2c(=O)cc(O)oc2c2ccccc21
AC50 (Cytochrome P450 2C19): 3.55 µM (inconclusive)
AC50 (Cytochrome P450 3A4): 0.631 µM (inconclusive)

CC(=O)c1ccc(NC(S)=Nc2ccc(Br)c(Cl)c2)cc1
EC50 [5]: 7.95 µM (active)
EC50 (Streptococcus): 8.74 µM (active)

CC1CN(C(=O)c2cc(S(=O)(=O)N(C)c3ccc(F)cc3)ccc2Cl)CC(C)O1 (configuration not stated)
EC50 [2]: > 195 µM (not active)

COC(=O)C(C)N=C(S)N1CCN(c2c(F)cc3c(=O)c(C(=O)O)cn(C4CC4)c3c2OC)CC1C (configuration not stated)
EC50 [5]: 2.85 µM (active)
EC50 (Streptococcus): 4.39 µM (active)

Cc1ccccc1C(=O)Nc1nnc(CC(=O)N/N=C/c2ccco2)s1
EC50 [2]: > 195 µM (not active)

COc1cc(/C=N/NC(=O)C2(O)c3ccccc3-c3ccccc32)ccc1O
IC50 [1]: 47.6 µM (active)

NC(=O)c1cc2n(n1)C(C(F)(F)F)CC(c1ccco1)N2 (configuration not stated)
CC50 [3]: 24.5 µM (active)

Cc1ccc(/C=C/C(=O)OCC(=O)NCCN2C(=O)CSC2=O)o1
EC50 [2]: > 195 µM (not active)

Cc1ccc(-c2nnn(CC(=O)N(Cc3ccco3)C(C(=O)NC(C)(C)C)c3ccc(C)o3)n2)o1 (configuration not stated)
CC50 [3]: > 50 µM (active)

COc1cccc(-c2nc(CS(=O)(=O)CC(=O)NCCCN3CC(C)CC(C)C3)c(C)o2)c1 (configuration not stated)
AC50 (Paired box protein Pax-8): 19.1 µM (active)

O=C(/C(=N/Nc1cccc(C(F)(F)F)c1)C(=O)C(F)(F)F)c1cccs1
AC50 [4]: 1.76 µM (active)

S=C(c1ccc(-c2ccc(Cl)c(Cl)c2)o1)N1CCOCC1
CC50 [3]: 29.4 µM (active)

Brc1cccc(OCCN2CCOCC2)c1
IC50 [1]: 134 µM (active)

COC(=O)Nc1nc2cc(-c3nnc(O)c4ccccc34)ccc2[nH]1
AC50 [4]: 11.2 µM (active)

CC(C)(C)C(CN1CCCC1)OC(=O)c1ccccc1 (configuration not stated)
EC50 [2]: 19.7 µM (active)

O=c1cnc2cnc(Nc3ccccc3)nc2n1C[C@H]1CCCO1
AC50 (Cytochrome P450 3A4): 31.6 µM (inconclusive)

Oc1nc2ccccc2n1C1CCN(C(c2cccc3ccccc23)c2nnnn2-c2ccc3c(c2)OCCO3)CC1 (configuration not stated)
AC50 (Paired box protein Pax-8): 3.78 µM (active)

COc1ccc(OC)c(-c2nnc3n2N=C(c2ccc(OC(F)F)c(OCC4CC4)c2)CS3)c1
AC50 [4]: 7.23 µM (active)

Cc1ccc(C)c(N2CCN(C(=O)C3CCCN(c4ncnc5c4nc4n5CCCCC4)C3)CC2)c1 (configuration not stated)
CC50 [3]: 20.6 µM (active)

COc1cc(OC)cc(-c2sc3ccc(OC)cc3c2-c2ccc3cc[nH]c3c2)c1
AC50 [4]: 1.87 µM (active)

Cc1ccnc(NC(=O)c2cccc(S(=O)(=O)N3CCN(c4ccc(F)cc4)CC3)c2)c1
CC50 [3]: 13.4 µM (active)

O=C(Cn1ccc([N+](=O)[O-])n1)NCc1cccs1
AC50 (Cytochrome P450 2C19): 14.1 µM (inconclusive)
AC50 (Cytochrome P450 3A4): 39.8 µM (inconclusive)
AC50 (Cytochrome P450 1A2): 15.8 µM (inconclusive)

COc1cc(C=O)ccc1OC(=O)c1ccc(C(C)C)cc1
EC50 [2]: > 195 µM (not active)

CCOCc1cnc(C)nc1NCC(=O)c1c(C)[nH]c2ccccc12
AC50 (Cytochrome P450 2D6): 12.6 µM (inconclusive)

COc1ccc(NC2CCCN(C(=O)c3ccccc3N3CCOCC3)C2)cc1OC (configuration not stated)
IC50 [1]: 198 µM (active)

C=C(Cl)COc1ccc2c(CCCC)cc(=O)oc2c1
CC50 [3]: 38.2 µM (active)

COCCn1c(=O)c(-c2ccc(OC)cc2)nc2cnc(Oc3cccc(Cl)c3)nc21
AC50 (Cytochrome P450 3A4): 2 µM (inconclusive)
AC50 (Cytochrome P450 1A2): 6.31 µM (inconclusive)

CS(=O)(=O)Nc1ccc(C(=O)N2CCN(c3ccccc3)CC2)cc1
AC50 (Cytochrome P450 2C19): 39.8 µM (inconclusive)
AC50 (Cytochrome P450 3A4): 25.1 µM (inconclusive)
AC50 (Cytochrome P450 2C9): 7.94 µM (inconclusive)

NCCSC(c1ccccc1)c1ccccc1
AC50 (Cytochrome P450 3A4): 3.16 µM (inconclusive)
AC50 (Cytochrome P450 1A2): 1.58 µM (inconclusive)

Cc1cn2c(nc(=O)c3cccnc32)s1
EC50 [2]: > 195 µM (not active)

O=C(c1ccccc1Cc1ccccc1)N1CCN(S(=O)(=O)c2ccccc2Br)CC1
CC50 [3]: 33.7 µM (active)
